Laboratory results taken from patent US7968556B2, “Heteroaryl compounds, compositions thereof, and methods of treatment therewith” (Signal Pharmaceuticals, LLC, priority 2006, dated 2011).

Columns and labels:
Syk = molecular target: T1, Syk (Homo sapiens, UniProt P43405); experiment: Syk HTRF Assay; format: biochemical
T1 construct: purchased Cama Biosciences (so in the source)
Protocol: 5 μl/well DMSO is added to Column 2 Wells A-0 and 29.5 μl to well P2 of Greiner 384-well polypropylene plate. 20 μl/well DMSO is added to Columns 1 and 3-12.
25 mM compound solutions are prepared by the addition of 25 μl of 30 mM compound to Column 2 and 0.5 μl 30 mM reference control to well P2.
Serial dilution is then performed by the following steps: (i) compounds in Column 2 are mixed by pipetting 20 μl up and down 6×; (ii) 10 μl/well compounds in DMSO are transferred from one column to the next column for Columns 2-11; (iii) wells are mixed by pipetting 20 μl up and down 6×; (iv) tips washed 3×25 μl DMSO, 2×25 μl next DMSO.
The following buffers are prepared:
Dilution Buffer: 50 mM HEPES pH 7.6; 1 mM DTT; 10 mM MgCl2; 0.01% Triton X100; 0.01% BSA; 0.1 mM EDTA.
Enzyme Mix in Dilution Buffer: 8.621 ng/ml Syk (Cama Biosciences 08-176).
Start Mix in Dilution Buffer: 87.5 μM ATP; 80 nM Substrate Peptide (American Peptide Company 332722).
14.5 μl/well Enzyme Mix or Dilution Buffer (Background Controls) is added to Costar 384-well black plates.
Compound addition and mixture is performed by the following steps: (i) 0.5 μl/well DMSO/compounds in DMSO transferred from Greiner 384-well polypropylene plate to left half of assay plate containing 14.5 μl/well Enzyme Mix and Dilution Buffer; (ii) Mix by pipetting 10 μl up and down 4×; (iii) tips are washed 4×10 μl in DMSO, 2×20 μl in other DMSO; (iv) steps i-iii are repeated with transfer to right half of assay plate; (v) steps i-iv are repeated with each compound/assay plate until all plates are completed.
10 μl/well Start Mix is added and incubated at room temperature on shaker for 2 minutes (1 hour total reaction time).
Stop Solution in Dilution Buffer: 120 mM EDTA
Antibody Mix in Dilution Buffer: 4.86 μg/ml DyLight 647 Streptavidin (Pierce 21824); 1 μg/ml Lance Eu-Anti-Phosphotyrosine (PerkinElmer AD0069).
5 μl/well[…] is added and incubated at room temperature on shaker for 2 minutes.
[…] Antibody Mix is added and Incubated at room temperature on shaker for 2 minutes (4 hours to overnight total time).
Plates are read at 665 nm and 620 nm emission on Analyst GT protocol HTRF_SP_A or EnVision protocol Steve's TR-FRET.

mTOR = mTOR (Homo sapiens, UniProt P42345); experiment: mTOR HTR-FRET Assay; format: biochemical
Summary of the method: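 TOR enzyme fraction preincubated 30 min at room temperature with compound, then reaction started with GST-p70S6 kinase fragment substrate (97 nM working stock) plus ATP/Mn2+ and run 2 h at room temperature in Tris pH 7.4 buffer. Stopped with EDTA; phospho-substrate detected by HTRF antibody reagent after 5 h to overnight.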

melting point [°C]	IC50 (Syk) [µM]	IC50 (mTOR) [µM]	Compound
362 to 363	> 30	5.1 to 10	COc1ccccc1-n1c(=O)[nH]c2c(C(N)=O)nc(-c3ccc(O)cc3)nc21 [Compound 8, 2-(4-hydroxyphenyl)-9-(2-methoxyphenyl)-8-oxo-8,9-dihydro-7H-purine-6-carboxamide]
360 to 362	> 30	> 30	COc1ccccc1-n1c(=O)[nH]c2c(C(N)=O)nc(-c3ccnc(O)c3)nc21 [Compound 13, 2-(2-hydroxypyridin-4-yl)-9-(2-methoxyphenyl)-8-oxo-8,9-dihydro-7H-purine-6-carboxamide]
343 to 345	–	0.1 to 5	NC(=O)c1nc(-c2cccnc2)nc2c1[nH]c(=O)n2[C@H]1CC[C@H](O)CC1 [Compound 50, 9-(trans-4-Hydroxycyclohexyl)-8-oxo-2-(pyridin-3-yl)-8,9-dihydro-7H-purine-6-carboxamide]
